Experimental data as given in patent publication US10870639B2, “Pyrimidine compounds and pharmaceutical compositions for preventing or treating cancers including the same” (HANMI PHARM. CO., LTD., priority 2018, dated 2020).

Columns and labels:
[1] = Pharmacokinetic profile in mice (p.o. and i.v.); assay type: in vivo; parameters: AUC: concentration or dose not given beside the values; details: mouse, plasma; for AUC: LC-MS/MS, non-compartment analysis, read-out: Area under the curve (AUC) of mice; for bioavailability: po, BA=(AUC p.o./AUC i.v.)×(Dose i.v./Dose p.o.)×100
Protocol: After test substances were formulated by using the selected solvents, they were administered orally (p.o.) and intravenously (iv) once for each and a certain amount of blood was taken at a predetermined time, and plasma was isolated from the blood and a concentration analysis was performed thereon by LC-MS/MS. The AUC (drug concentration and an area under the curve) was calculated according to the linear-log trapezoidal summation formula by using the non-compartment analysis of the WinNonlin program through the plasma concentration curves over time. The bioavailability (BA) was calculated by applying the calculated AUC value to the following formula. BA (%)=(AUC p.o./AUC i.v.)×(Dose i.v./Dose p.o.)×100

MV-4-11 = experiment: Cell growth inhibition (MTS), MV-4-11; assay type: cell-based; details: Homo sapiens, MV4-11, 72 h, incubation three days
Protocol: (§1) The human acute myelogenous leukemia […] cell line MOLM-13 (DSMZ no. ACC 554) was incubated in RPM11640 medium supplemented with 20% heat-inactivated FBS at a temperature of 37° C. The incubated cell line was prepared in an amount of 2.0×10^4 cells/100 μL, and then plated on a 96-well plate. The RPMI1640 medium was serially diluted with the test compounds at a concentration in a range of 1 μM to 0.01 nM at a ratio of 1:10. Subsequently, incubation was performed thereon for three days. For the human acute myelogenous leukemia cell line MV-4-11 cell line (ATCC® CRL-9591™), the cells were incubated at a temperature of 37° C. in IMDM medium supplemented with 10% FBS. The incubated cell line was prepared in an amount of 2×10^4 cells/100 μL, and then plated on a 96-well plate. The IMDM medium was treated with cascade dilution of three test compounds at a concentration in a range of 1 μM to 0.01 nM at a rate of 1/10. Subsequently, incubation was performed thereon for three days. MTS test was performed to measure cell viability, and the growth inhibition (GI50) value of the cell line was calculated using GraphPad Prism software.

FLT3 ITD = FLT3 ITD (Homo sapiens, UniProt P36888, ITD); experiment: LanthaScreen kinase binding assay, FLT3 ITD
FLT3 ITD, sequence (P36888 whole entry, looked up, change not shown): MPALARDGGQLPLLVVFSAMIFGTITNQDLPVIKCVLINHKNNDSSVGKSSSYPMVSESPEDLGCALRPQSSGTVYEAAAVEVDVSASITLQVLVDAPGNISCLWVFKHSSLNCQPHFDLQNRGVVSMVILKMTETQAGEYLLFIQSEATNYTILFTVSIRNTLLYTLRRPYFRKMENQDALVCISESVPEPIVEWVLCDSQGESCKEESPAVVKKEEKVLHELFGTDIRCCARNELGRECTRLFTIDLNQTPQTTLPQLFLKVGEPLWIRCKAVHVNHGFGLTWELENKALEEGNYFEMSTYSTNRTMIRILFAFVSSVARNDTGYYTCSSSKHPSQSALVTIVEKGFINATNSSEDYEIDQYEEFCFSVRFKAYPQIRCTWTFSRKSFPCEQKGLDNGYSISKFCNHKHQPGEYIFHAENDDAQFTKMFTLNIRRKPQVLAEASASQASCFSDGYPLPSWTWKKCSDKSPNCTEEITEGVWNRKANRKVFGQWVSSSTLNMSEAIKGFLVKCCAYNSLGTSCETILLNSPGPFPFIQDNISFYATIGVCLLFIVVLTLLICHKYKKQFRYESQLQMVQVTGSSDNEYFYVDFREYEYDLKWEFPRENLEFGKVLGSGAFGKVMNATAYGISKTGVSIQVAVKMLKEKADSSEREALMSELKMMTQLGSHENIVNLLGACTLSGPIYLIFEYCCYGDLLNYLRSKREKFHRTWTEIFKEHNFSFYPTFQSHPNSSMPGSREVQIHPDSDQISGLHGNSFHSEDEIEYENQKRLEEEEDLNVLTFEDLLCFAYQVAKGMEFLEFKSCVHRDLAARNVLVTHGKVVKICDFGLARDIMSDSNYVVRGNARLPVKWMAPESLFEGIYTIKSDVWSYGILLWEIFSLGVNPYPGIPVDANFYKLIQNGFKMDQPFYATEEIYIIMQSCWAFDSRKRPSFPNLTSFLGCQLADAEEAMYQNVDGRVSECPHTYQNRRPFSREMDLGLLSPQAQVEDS
Protocol: (§2) The inhibitory activity of some of the compounds described above against FLT3-ITD, FLT3 wild type (WT), VEGFR2 (KDR), and SYK kinase was measured.
(§3) This experiment was carried out on a 384-well plate in conditions including 50 mM HEPES pH 7.5, 0.01% BRIJ-35, 10 mM MgCl2, 1 mM EGTA, and 1% DMSO.

MOLM-13 = experiment: Cell growth inhibition (MTS), MOLM-13; assay type: cell-based; details: Homo sapiens, MOLM-13, 72 h, incubation three days
Protocol: as §1

FLT3 WT = FLT3 WT (Homo sapiens (Human), UniProt P36888); experiment: LanthaScreen kinase binding assay, FLT3 WT; details: kinase tracer-236, 50 nM to 0.05 nM
FLT3 WT, sequence (P36888 27-993): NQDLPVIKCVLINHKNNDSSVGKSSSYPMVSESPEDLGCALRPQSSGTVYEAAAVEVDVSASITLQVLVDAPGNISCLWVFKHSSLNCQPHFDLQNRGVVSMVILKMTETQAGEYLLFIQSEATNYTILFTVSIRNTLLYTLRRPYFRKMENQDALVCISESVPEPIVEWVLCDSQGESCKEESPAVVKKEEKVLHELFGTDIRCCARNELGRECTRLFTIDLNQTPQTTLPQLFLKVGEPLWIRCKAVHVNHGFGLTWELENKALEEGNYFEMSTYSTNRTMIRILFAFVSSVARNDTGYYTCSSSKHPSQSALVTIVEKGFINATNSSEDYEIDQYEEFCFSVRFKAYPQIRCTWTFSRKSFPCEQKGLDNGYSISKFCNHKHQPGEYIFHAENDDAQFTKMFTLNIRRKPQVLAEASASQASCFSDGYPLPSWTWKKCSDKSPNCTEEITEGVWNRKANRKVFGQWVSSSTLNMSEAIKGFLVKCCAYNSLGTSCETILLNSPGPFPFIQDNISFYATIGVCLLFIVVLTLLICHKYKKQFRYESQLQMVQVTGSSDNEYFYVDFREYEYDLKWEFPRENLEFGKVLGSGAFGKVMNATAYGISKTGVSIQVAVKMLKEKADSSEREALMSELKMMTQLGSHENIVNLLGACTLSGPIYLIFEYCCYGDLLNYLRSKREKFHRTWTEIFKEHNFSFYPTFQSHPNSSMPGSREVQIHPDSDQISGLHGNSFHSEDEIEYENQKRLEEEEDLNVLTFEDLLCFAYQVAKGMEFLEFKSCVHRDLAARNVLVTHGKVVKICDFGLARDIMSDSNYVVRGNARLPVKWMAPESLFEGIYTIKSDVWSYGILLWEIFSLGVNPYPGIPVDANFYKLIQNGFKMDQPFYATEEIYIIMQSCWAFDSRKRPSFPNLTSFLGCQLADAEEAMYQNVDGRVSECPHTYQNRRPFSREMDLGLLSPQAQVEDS
Protocol: as §2, §3

| Compound | AUC [1] | bioavailability [1] | GI50 (MV-4-11) | GI50 (MOLM-13) | IC50 (FLT3 ITD) | IC50 (FLT3 WT) |
| --- | --- | --- | --- | --- | --- | --- |
| COc1cc(CN2CCN(CCO)CC2)cc(Nc2ncc(Cl)c(-c3c[nH]c4ccccc34)n2)c1 [Control Compound 1] | 95.5 ng·h/mL | 6.6% | – | – | – | – |
| OCCN1CCN(Cc2cccc(Nc3ncc(Cl)c(-c4c[nH]c5ccccc45)n3)c2)CC1 [Control Compound 2] | 110 ng·h/mL | 6.7% | – | – | – | – |
| Cc1ccc2c(-c3nc(Nc4cc(C5CC5)cc(N5CCC(N(C)C)CC5)c4)ncc3Cl)c[nH]c2c1 [Control Compound 3] | 2270 ng·h/mL | 27.3% | – | – | – | – |
| CN(C)C1CCN(c2cc(Nc3ncc(Cl)c(-c4c[nH]c5ccccc45)n3)cc(C3CC3)c2)CC1 [Control Compound 4] | 518 ng·h/mL | 27% | – | – | – | – |
| C[C@@H]1CN(Cc2cc(Nc3ncc(Cl)c(-c4c[nH]c5cc(Cl)ccc45)n3)cc(C3CC3)c2)C[C@H](C)N1 [Example 2, 5-chloro-4-(6-chloro-1H-indole-3-yl)-N-(3-cyclopropyl-5-(((3R,5S)-3,5-dimethylpiperazine-1-yl)methyl)phenyl)pyrimidine-2-amine] | – | – | 3.5 nM | 6.2 nM | 1.5 nM | 1.9 nM |
| C[C@@H]1CN(Cc2cc(Nc3ncc(Cl)c(-c4c[nH]c5ccccc45)n3)cc(C3CC3)c2)C[C@H](C)N1CCO [Example 4, 2-((2R,6S)-4-(3-((5-chloro-4-(1H-indole-3-yl)pyrimidine-2-yl)amino)-5-cyclopropylbenzyl)-2,6-dimethylpiperazine-1-yl)ethane-1-ol] | 184 ng·h/mL | 7.4% | 1.7 nM | 0.7 nM | 3.6 nM | – |
| C[C@@H]1CN(Cc2cc(Nc3ncc(Cl)c(-c4c[nH]c5ccccc45)n3)cc(C3CC3)c2)CCN1 [Example 6, (R)-5-chloro-N-(3-cyclopropyl-5-((3-methylpiperazine-1-yl)methyl)phenyl)-4-(1H-indole-3-yl)pyrimidine-2-amine] | – | – | – | – | 1.8 nM | – |
| Cc1ccc2c(-c3nc(Nc4cc(CN5C[C@@H](C)N[C@@H](C)C5)cc(C5CC5)c4)ncc3F)c[nH]c2c1 [Example 12, N-(3-cyclopropyl-5-(((3R,5S)-3,5-dimethylpiperazine-1-yl)methyl)phenyl)-5-fluoro-4-(6-methyl-1H-indole-3-yl)pyrimidine-2-amine] | – | – | 11 nM | 21 nM | 2.5 nM | 1.2 nM |
| C[C@@H]1CN(Cc2cc(Nc3ncc(Cl)c(-c4c[nH]c5cc(CO)ccc45)n3)cc(C3CC3)c2)C[C@H](C)N1 [Example 16, (3-(5-chloro-2-((3-cyclopropyl-5-(((3R,5S)-3,5-dimethylpiperazine-1-yl)methyl)phenyl)amino)pyrimidine-4-yl)-1H-indole-6-yl)methanol] | – | – | – | – | 0.5 nM | 0.4 nM |
| COc1cc2c(-c3nc(Nc4cc(CN5C[C@@H](C)N[C@@H](C)C5)cc(C5CC5)c4)ncc3Cl)c[nH]c2cc1C [Example 17, 5-chloro-N-(3-cyclopropyl-5-(((3R,5S)-3,5-dimethylpiperazine-1-yl)methyl)phenyl)-4-(5-methoxy-6-methyl-1H-indole-3-yl)pyrimidine-2-amine] | – | – | – | – | > 50 nM | 9.5 nM |
| Cc1cc2[nH]cc(-c3nc(Nc4cc(CN5C[C@@H](C)N[C@@H](C)C5)cc(C5CC5)c4)ncc3Cl)c2cc1O [Example 18, 3-(5-chloro-2-((3-cyclopropyl-5-(((3R,5S)-3,5-dimethylpiperazine-1-yl)methyl)phenyl)amino)pyrimidine-4-yl)-6-methyl-1H-indole-5-ol] | – | – | – | – | 13 nM | 3.7 nM |
| Cc1ccc2c(c1)NC(=O)C2c1nc(Nc2cc(CN3C[C@@H](C)N[C@@H](C)C3)cc(C3CC3)c2)ncc1Cl (stereo partly drawn) [Example 19, 3-(5-chloro-2-((3-cyclopropyl-5-(((3R,5S)-3,5-dimethylpiperazine-1-yl)methyl)phenyl)amino)pyrimidine-4-yl)-6-methylindoline-2-one] | – | – | – | – | > 50 nM | – |
| Cc1ccc2c(-c3nc(Nc4cc(CN5C[C@@H](C)N[C@@H](C)C5)cc(C5CC5)c4)ncc3Cl)c[nH]c2c1O [Example 22, 3-(5-chloro-2-((3-cyclopropyl-5-(((3R,5S)-3,5-dimethylpiperazine-1-yl)methyl)phenyl)amino)pyrimidine-4-yl)-6-methyl-1H-indole-7-ol] | – | – | – | – | 2.4 nM | – |
| Cc1ccc2c(-c3nc(Nc4cc(C5CC5)cc(CN5C[C@@H](C)N[C@@H](C)C5)c4O)ncc3Cl)c[nH]c2c1 [Example 23, 2-((5-chloro-4-(6-methyl-1H-indole-3-yl)pyrimidine-2-yl)amino)-4-cyclopropyl-6-(((3R,5S)-3,5-dimethylpiperazine-1-yl)methyl)phenol] | – | – | – | – | > 50 nM | 0.4 nM |
| Cc1ccc2c(-c3nc(Nc4cc(CN5C[C@@H](C)NC(C)(C)C5)cc(C5CC5)c4)ncc3Cl)c[nH]c2c1 [Example 25, (R)-5-chloro-N-(3-cyclopropyl-5-((3,3,5-trimethylpiperazine-1-yl)methyl)phenyl)-4-(6-methyl-1H-indole-3-yl)pyrimidine-2-amine] | 21800 ng·h/mL | 21.2% | 9.3 nM | 8.5 nM | 20 nM | 2.3 nM |
| Cc1ccc2c(-c3nc(Nc4cc(CN5C[C@H](CO)N[C@H](C)C5)cc(C5CC5)c4)ncc3Cl)c[nH]c2c1 [Example 26, ((2R,6R)-4-(3-((5-chloro-4-(6-methyl-1H-indole-3-yl)pyrimidine-2-yl)amino)-5-cyclopropylbenzyl)-6-methylpiperazine-2-yl)methanol] | – | – | 22 nM | 6.1 nM | 2.3 nM | 1.5 nM |
| Cc1ccc2c(-c3nc(Nc4cc(CN5C[C@@H](C)N(O)[C@@H](C)C5)cc(C5CC5)c4)ncc3Cl)c[nH]c2c1 [Example 31, (2R,6S)-4-(3-((5-chloro-4-(6-methyl-1H-indole-3-yl)pyrimidine-2-yl)amino)-5-cyclopropylbenzyl)-2,6-dimethylpiperazine-1-ol] | – | – | – | – | 6.9 nM | – |

Second part, led by results:

| AUC [1] | bioavailability [1] | GI50 (MV-4-11) | GI50 (MOLM-13) | Compound | IC50 (FLT3 ITD) | IC50 (FLT3 WT) |
| --- | --- | --- | --- | --- | --- | --- |
| 1220 ng·h/mL | 25.6% | – | – | Cc1ccc2c(-c3nc(Nc4cc(CN5CCN(C(C)(C)CO)CC5)cc(C5CC5)c4)ncc3Cl)c[nH]c2c1 [Control Compound 5] | – | – |
| – | – | 0.3 nM | 0.4 nM | C[C@@H]1CN(Cc2cc(Nc3ncc(Cl)c(-c4c[nH]c5cc(F)ccc45)n3)cc(C3CC3)c2)C[C@H](C)N1CCO [Example 3, 2-((2R,6S)-4-(3-((5-chloro-4-(6-fluoro-1H-indole-3-yl)pyrimidine-2-yl)amino)-5-cyclopropylbenzyl)-2,6-dimethylpiperazine-1-yl)ethane-1-ol] | 8.1 nM | – |
| – | – | 2.8 nM | 5 nM | Cc1ccc2c(-c3nc(Nc4cc(CN5CC(C)NC(C)C5)cc(C5CC5)c4)ncc3Cl)c[nH]c2c1 (stereo not shown) [Example 10, 5-chloro-N-(3-cyclopropyl-5-((3,5-dimethylpiperazine-1-yl)methyl)phenyl)-4-(6-methyl-1H-indole-3-yl)pyrimidine-2-amine] | – | – |
| – | – | 2.1 nM | 2.6 nM | Cc1cnc(Nc2cc(CN3C[C@@H](C)N[C@@H](C)C3)cc(C3CC3)c2)nc1-c1c[nH]c2ccccc12 [Example 13, N-(3-cyclopropyl-5-(((3R,5S)-3,5-dimethylpiperazine-1-yl)methyl)phenyl)-4-(1H-indole-3-yl)-5-methylpyrimidine-2-amine] | 8.7 nM | – |
| – | – | < 0.01 nM | 0.8 nM | Cc1ccc2c(-c3nc(Nc4cc(CN5C[C@@H](C)N[C@H](C)C5)cc(C5CC5)c4)ncc3Cl)c[nH]c2c1 [Example 28, 5-chloro-N-(3-cyclopropyl-5-(((3R,5R)-3,5-dimethylpiperazine-1-yl)methyl)phenyl)-4-(6-methyl-1H-indole-3-yl)pyrimidine-2-amine] | – | – |
